{"source": "PubChem BioAssay (NCI)", "experiment_in_all_cases": "NCI anticancer screen, dose series, 48 h", "key": {"K-562 leukemia": {"tested_on": "K-562 leukemia"}, "UACC-62 melanoma": {"tested_on": "UACC-62 melanoma"}, "NCI-H23 lung": {"tested_on": "NCI-H23 lung"}, "SK-MEL-28 melanoma": {"tested_on": "SK-MEL-28 melanoma"}, "OVCAR-3 ovarian": {"tested_on": "OVCAR-3 ovarian"}, "HCT-15 colon": {"tested_on": "HCT-15 colon"}, "SNB-75 CNS": {"tested_on": "SNB-75 CNS"}, "MOLT-4 leukemia": {"tested_on": "MOLT-4 leukemia"}, "IGROV1 ovarian": {"tested_on": "IGROV1 ovarian"}, "RXF 393 renal": {"tested_on": "RXF 393 renal"}}, "note": "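Compound exposure: 48 hours, 5 concentrations, 96-well plates. GI50 = concentration required for 50% inhibition of growth. Definition used: TGI = concentration required for complete inhibition of growth.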"}
{"molecule": "O=c1cc(-c2ccc(F)cc2)[nH]c2ncccc12", "values": [{"measurement": "TGI", "setting": "K-562 leukemia", "result": "> 100", "unit": "µM"}, {"measurement": "TGI", "setting": "UACC-62 melanoma", "result": "> 100", "unit": "µM"}, {"measurement": "TGI", "setting": "NCI-H23 lung", "result": "> 100", "unit": "µM"}, {"measurement": "TGI", "setting": "SK-MEL-28 melanoma", "result": "> 100", "unit": "µM"}, {"measurement": "GI50", "setting": "OVCAR-3 ovarian", "result": 45.5, "unit": "µM"}, {"measurement": "TGI", "setting": "OVCAR-3 ovarian", "result": "> 100", "unit": "µM"}, {"measurement": "TGI", "setting": "HCT-15 colon", "result": "> 100", "unit": "µM"}, {"measurement": "TGI", "setting": "SNB-75 CNS", "result": 81.1, "unit": "µM"}, {"measurement": "TGI", "setting": "MOLT-4 leukemia", "result": "> 100", "unit": "µM"}, {"measurement": "TGI", "setting": "IGROV1 ovarian", "result": "> 100", "unit": "µM"}]}
{"molecule": "O=C1CCCCCCC2=C1C(Sc1ccccc1)CC2", "note": "(stereo unspecified)", "values": [{"measurement": "TGI", "setting": "K-562 leukemia", "result": "> 100", "unit": "µM"}, {"measurement": "TGI", "setting": "RXF 393 renal", "result": 48.6, "unit": "µM"}, {"measurement": "TGI", "setting": "UACC-62 melanoma", "result": "> 100", "unit": "µM"}, {"measurement": "TGI", "setting": "NCI-H23 lung", "result": "> 100", "unit": "µM"}, {"measurement": "TGI", "setting": "SK-MEL-28 melanoma", "result": 94.8, "unit": "µM"}, {"measurement": "TGI", "setting": "HCT-15 colon", "result": "> 100", "unit": "µM"}, {"measurement": "TGI", "setting": "SNB-75 CNS", "result": 90.7, "unit": "µM"}, {"measurement": "TGI", "setting": "MOLT-4 leukemia", "result": "> 100", "unit": "µM"}]}
{"molecule": "COc1ccc(-c2ncnc3c2ncn3CC#CCCl)cc1", "values": [{"measurement": "GI50", "setting": "K-562 leukemia", "result": 8.06, "unit": "µM"}, {"measurement": "TGI", "setting": "K-562 leukemia", "result": "> 100", "unit": "µM"}, {"measurement": "GI50", "setting": "RXF 393 renal", "result": 2.29, "unit": "µM"}, {"measurement": "TGI", "setting": "RXF 393 renal", "result": 5.94, "unit": "µM"}, {"measurement": "GI50", "setting": "UACC-62 melanoma", "result": 3.32, "unit": "µM"}, {"measurement": "TGI", "setting": "UACC-62 melanoma", "result": 15.2, "unit": "µM"}, {"measurement": "GI50", "setting": "NCI-H23 lung", "result": 7.83, "unit": "µM"}, {"measurement": "TGI", "setting": "NCI-H23 lung", "result": 21.4, "unit": "µM"}, {"measurement": "GI50", "setting": "SK-MEL-28 melanoma", "result": 9.87, "unit": "µM"}, {"measurement": "TGI", "setting": "SK-MEL-28 melanoma", "result": 21.8, "unit": "µM"}, {"measurement": "GI50", "setting": "OVCAR-3 ovarian", "result": 1.93, "unit": "µM"}, {"measurement": "TGI", "setting": "OVCAR-3 ovarian", "result": 5.75, "unit": "µM"}, {"measurement": "GI50", "setting": "HCT-15 colon", "result": 4.07, "unit": "µM"}, {"measurement": "TGI", "setting": "HCT-15 colon", "result": 17.7, "unit": "µM"}, {"measurement": "GI50", "setting": "SNB-75 CNS", "result": 1.64, "unit": "µM"}, {"measurement": "TGI", "setting": "SNB-75 CNS", "result": 4.84, "unit": "µM"}, {"measurement": "GI50", "setting": "MOLT-4 leukemia", "result": 2.68, "unit": "µM"}, {"measurement": "TGI", "setting": "MOLT-4 leukemia", "result": "> 100", "unit": "µM"}]}
{"molecule": "CC(=O)OCc1c(O)c2c([nH]c1=O)CCc1ccccc1-2", "values": [{"measurement": "TGI", "setting": "K-562 leukemia", "result": "> 350", "unit": "µM"}, {"measurement": "TGI", "setting": "RXF 393 renal", "result": 105, "unit": "µM"}, {"measurement": "TGI", "setting": "UACC-62 melanoma", "result": 119, "unit": "µM"}, {"measurement": "TGI", "setting": "NCI-H23 lung", "result": 218, "unit": "µM"}, {"measurement": "TGI", "setting": "SK-MEL-28 melanoma", "result": 130, "unit": "µM"}, {"measurement": "TGI", "setting": "OVCAR-3 ovarian", "result": 102, "unit": "µM"}, {"measurement": "TGI", "setting": "HCT-15 colon", "result": 112, "unit": "µM"}, {"measurement": "TGI", "setting": "MOLT-4 leukemia", "result": "> 350", "unit": "µM"}, {"measurement": "TGI", "setting": "IGROV1 ovarian", "result": "> 350", "unit": "µM"}]}
{"molecule": "O=[N+]([O-])c1ccc(-c2csc(N=Nc3c(O)[nH]c4ccccc34)n2)cc1", "values": [{"measurement": "TGI", "setting": "NCI-H23 lung", "result": "> 100", "unit": "µM"}, {"measurement": "TGI", "setting": "SK-MEL-28 melanoma", "result": "> 100", "unit": "µM"}, {"measurement": "TGI", "setting": "OVCAR-3 ovarian", "result": "> 100", "unit": "µM"}, {"measurement": "TGI", "setting": "HCT-15 colon", "result": 30.1, "unit": "µM"}, {"measurement": "TGI", "setting": "SNB-75 CNS", "result": "> 100", "unit": "µM"}, {"measurement": "TGI", "setting": "MOLT-4 leukemia", "result": "> 100", "unit": "µM"}, {"measurement": "TGI", "setting": "IGROV1 ovarian", "result": 57.9, "unit": "µM"}]}
{"molecule": "Cc1ccc(NCC2(/N=C/c3ccccc3)OC(CO)C(O)C2O)cc1", "note": "(stereo unspecified)", "values": [{"measurement": "TGI", "setting": "K-562 leukemia", "result": "> 100", "unit": "µM"}, {"measurement": "TGI", "setting": "UACC-62 melanoma", "result": "> 100", "unit": "µM"}, {"measurement": "TGI", "setting": "NCI-H23 lung", "result": "> 100", "unit": "µM"}, {"measurement": "TGI", "setting": "SK-MEL-28 melanoma", "result": "> 100", "unit": "µM"}, {"measurement": "TGI", "setting": "OVCAR-3 ovarian", "result": "> 100", "unit": "µM"}, {"measurement": "TGI", "setting": "HCT-15 colon", "result": "> 100", "unit": "µM"}, {"measurement": "TGI", "setting": "SNB-75 CNS", "result": "> 100", "unit": "µM"}, {"measurement": "TGI", "setting": "MOLT-4 leukemia", "result": "> 100", "unit": "µM"}, {"measurement": "TGI", "setting": "IGROV1 ovarian", "result": "> 100", "unit": "µM"}]}
{"molecule": "Cc1ccc(S(=O)(=O)ON2C(=O)c3cccc4cc([N+](=O)[O-])cc(c34)C2=O)cc1", "values": [{"measurement": "TGI", "setting": "RXF 393 renal", "result": "> 100", "unit": "µM"}, {"measurement": "TGI", "setting": "UACC-62 melanoma", "result": "> 100", "unit": "µM"}, {"measurement": "TGI", "setting": "NCI-H23 lung", "result": "> 100", "unit": "µM"}, {"measurement": "TGI", "setting": "SK-MEL-28 melanoma", "result": "> 100", "unit": "µM"}, {"measurement": "TGI", "setting": "OVCAR-3 ovarian", "result": "> 100", "unit": "µM"}, {"measurement": "TGI", "setting": "HCT-15 colon", "result": "> 100", "unit": "µM"}, {"measurement": "TGI", "setting": "SNB-75 CNS", "result": "> 100", "unit": "µM"}, {"measurement": "TGI", "setting": "MOLT-4 leukemia", "result": "> 100", "unit": "µM"}, {"measurement": "TGI", "setting": "IGROV1 ovarian", "result": "> 100", "unit": "µM"}]}
{"molecule": "CC1SC(c2ccccc2Cl)N(NC(=O)C(O)c2ccccc2)C1=O", "note": "(stereo unspecified)", "values": [{"measurement": "GI50", "setting": "K-562 leukemia", "result": 58.5, "unit": "µM"}, {"measurement": "TGI", "setting": "K-562 leukemia", "result": "> 100", "unit": "µM"}, {"measurement": "GI50", "setting": "RXF 393 renal", "result": "> 100", "unit": "µM"}, {"measurement": "TGI", "setting": "RXF 393 renal", "result": "> 100", "unit": "µM"}, {"measurement": "GI50", "setting": "UACC-62 melanoma", "result": 45, "unit": "µM"}, {"measurement": "TGI", "setting": "UACC-62 melanoma", "result": "> 100", "unit": "µM"}, {"measurement": "GI50", "setting": "SK-MEL-28 melanoma", "result": "> 100", "unit": "µM"}, {"measurement": "TGI", "setting": "SK-MEL-28 melanoma", "result": "> 100", "unit": "µM"}, {"measurement": "GI50", "setting": "OVCAR-3 ovarian", "result": 35.4, "unit": "µM"}, {"measurement": "TGI", "setting": "OVCAR-3 ovarian", "result": "> 100", "unit": "µM"}, {"measurement": "GI50", "setting": "HCT-15 colon", "result": 66.9, "unit": "µM"}, {"measurement": "TGI", "setting": "HCT-15 colon", "result": "> 100", "unit": "µM"}, {"measurement": "GI50", "setting": "SNB-75 CNS", "result": "> 100", "unit": "µM"}, {"measurement": "TGI", "setting": "SNB-75 CNS", "result": "> 100", "unit": "µM"}, {"measurement": "GI50", "setting": "MOLT-4 leukemia", "result": 50.4, "unit": "µM"}, {"measurement": "TGI", "setting": "MOLT-4 leukemia", "result": "> 100", "unit": "µM"}, {"measurement": "GI50", "setting": "IGROV1 ovarian", "result": 73.1, "unit": "µM"}, {"measurement": "TGI", "setting": "IGROV1 ovarian", "result": "> 100", "unit": "µM"}]}
{"molecule": "O=S1(=O)c2ccccc2N(O)C2=NCCN21", "values": [{"measurement": "TGI", "setting": "K-562 leukemia", "result": "> 100", "unit": "µM"}, {"measurement": "TGI", "setting": "RXF 393 renal", "result": "> 100", "unit": "µM"}, {"measurement": "TGI", "setting": "UACC-62 melanoma", "result": "> 100", "unit": "µM"}, {"measurement": "TGI", "setting": "NCI-H23 lung", "result": "> 100", "unit": "µM"}, {"measurement": "TGI", "setting": "SK-MEL-28 melanoma", "result": "> 100", "unit": "µM"}, {"measurement": "TGI", "setting": "OVCAR-3 ovarian", "result": "> 100", "unit": "µM"}, {"measurement": "TGI", "setting": "SNB-75 CNS", "result": "> 100", "unit": "µM"}, {"measurement": "TGI", "setting": "MOLT-4 leukemia", "result": "> 100", "unit": "µM"}, {"measurement": "TGI", "setting": "IGROV1 ovarian", "result": "> 100", "unit": "µM"}]}
{"molecule": "CN(C)c1ccc(/C=c2\\sc3nnc(-c4ccco4)n3c2=O)cc1", "values": [{"measurement": "TGI", "setting": "K-562 leukemia", "result": "> 100", "unit": "µM"}, {"measurement": "TGI", "setting": "RXF 393 renal", "result": "> 100", "unit": "µM"}, {"measurement": "TGI", "setting": "UACC-62 melanoma", "result": "> 100", "unit": "µM"}, {"measurement": "TGI", "setting": "NCI-H23 lung", "result": "> 100", "unit": "µM"}, {"measurement": "TGI", "setting": "SK-MEL-28 melanoma", "result": "> 100", "unit": "µM"}, {"measurement": "TGI", "setting": "OVCAR-3 ovarian", "result": "> 100", "unit": "µM"}, {"measurement": "TGI", "setting": "SNB-75 CNS", "result": "> 100", "unit": "µM"}, {"measurement": "TGI", "setting": "MOLT-4 leukemia", "result": "> 100", "unit": "µM"}, {"measurement": "TGI", "setting": "IGROV1 ovarian", "result": "> 100", "unit": "µM"}]}
